The values below come from patent US7303770B2, “Cancer chemoprotective food products” (Johns Hopkins School of Medicine, priority 1997, dated 2007).

The test system of assay [1] is QR activity in Hepa 1c1c7 murine hepatoma cells. Kind of assay: Inducer activity: QR induction in Hepa 1c1c7 microtiter bioassay, extracts untreated with myrosinase. It counts as cell-based. Particulars: without myrosinase hydrolysis. On the procedure: Inducer activity or Phase 2 enzyme-inducing activity is a measure of the ability of a compound(s) to induce Phase 2 enzyme activity. In the present invention, inducer activity is measured by means of the murine hepatoma cell bioassay of QR activity in vitro. Inducer activity is defined herein as QR inducing activity in Hepa 1c1c7 cells (murine hepatoma cells) incubated with extracts of sprouts, seeds or other plant parts untreated with myrosinase. Inducer activity is measured in Hepa 1c1c7 murine hepatoma cells grown in 96-well microtiter plates. Typically 10,000 Hepa 1c1c7 cells are introduced into each well. Hepatoma cells are grown for 24 hours and a plant extract containing microgram quantities of fresh plant tissue is serially diluted across the microtiter plates into fresh culture medium containing 0.15 ml αMEM culture medium amended with 10% Fetal Calf Serum (FCS) and streptomycin and penicillin. The cells are further incubated for 48 hours. QR activity (based on the formation of the blue-brown reduced tetrazolium dye) is measured with an optical microtiter plate scanner in cell lysates prepared in one plate, and related to its protein concentration. Quantitative information on specific activity of QR is obtained by computer analysis of the absorbances. One unit of inducer activity is the amount that when added to a single microtiter well doubles the QR activity. […]

Assay [2] has the same test system. Kind of assay: Inducer potential: QR induction in Hepa 1c1c7 microtiter bioassay, myrosinase-treated extracts. It counts as cell-based. As to conditions: ammonium salts of isolated peaks. On the procedure:
Inducer potential or Phase 2 enzyme-inducing potential is a measure of the combined amounts of inducer activity in plant tissue provided by isothiocyanates, plus glucosinolates that can be converted by myrosinase to isothiocyanates. Glucosinolates are not themselves inducers of mammalian Phase 2 enzymes, whereas isothiocyanates are inducers. Inducer potential therefore is defined herein as QR activity in murine 1c1c7 hepatoma cells incubated with myrosinase-treated extracts of the sprouts, seeds or other plant parts. In the present invention therefore inducer potential is measured by means of the murine hepatoma cell bioassay of QR activity in vitro as described above. Inducer potential is measured in Hepa 1c1c7 murine hepatoma cells grown in 96-well microtiter plates. […] Hepatoma cells are grown for 24 hours and a plant extract containing microgram quantities of fresh plant tissue is serially diluted across the microtiter plates into fresh culture medium containing 0.15 ml αMEM culture medium amended with 10% Fetal Calf Serum (FCS) and streptomycin and penicillin. […] QR activity (based on the formation of the blue-brown reduced tetrazolium dye) is measured with an optical microtiter plate scanner in cell lysates prepared in one plate, and related to its protein concentration. Quantitative information on specific activity of QR is obtained by computer analysis of absorbances. […]

Assay [3] has the same test system. As to conditions: reported values, cited from earlier work.

Turning to `C[S+]([O-])CCCC/C(=N\OS(=O)(=O)O)S[C@@H]1O[C@H](CO)[C@@H](O)[C@H](O)[C@H]1O` (single isomer, unassigned; peak a) [Peak A, 4-methylsulfinylbutyl glucosinolate], in assay [1], the “Inducer activity of isolated PIC peaks” value was “no significant inducer activity”. Also, the “Inducer potency after myrosinase hydrolysis” value in assay [2] is on record as 36,100 units/μmol.
`CSCCCCC(=NOS(=O)(=O)O)S[C@@H]1O[C@H](CO)[C@@H](O)[C@H](O)[C@H]1O` (single isomer, unassigned; peak c) [Peak C, 4-methythiobutyl glucosinolate]: the “Inducer activity of isolated PIC peaks” value in assay [1] is reported as “no significant inducer activity”. For the same compound, the “Inducer potency after myrosinase hydrolysis” value in assay [2] was 4,360 units/μmol.
`C[S+]([O-])CCCCN=C=S` (stereo not drawn) [sulforaphane]: the “Inducer potency corresponding to reported CD value” in assay [3] (Hepa 1c1c7) is recorded as 33,333 units/μmol. For the same compound, the “CD value (concentration required to double QR specific activity)” value in assay [3] (Hepa 1c1c7 murine hepatoma cells) was 0.2 µM.
